Experimental data as given in patent US11053608B2, “Combinatorial derivatives of RNA oligonucleotides” (priority 2017, dated 2021).

Experiments:
Schwez leukemia = assay: Antitumor activity on Shvets leukemia; assay type: in vivo, Outbred white rats; settings: injected dose 9.1*3 = 27.3 mg/kg intraperitoneal
[1] = Toxic dose LD50 and lethal dose LD100; assay type: in vivo
Protocol: The compositions (MATR and Taxotere) were administered intraperitoneally three times with an interval of two hours in 0.5 ml. For MATR injection aqueous solution was used. The total doses of the compositions were 34.0, 68.0, 84.0, 102.0 and 136 mg/kg. The number of dead animals in each group was confirmed every 24-48 hours. The calculation of the toxic dose, LD50, was carried out according to the protocol. The lethal dose, […], was determined experimentally.

HeLa-2 tumor cells = assay: Minimum active dose and cytopathic effect in HeLa-2 cell culture; assay type: cell-based; settings: minimum amount causing degeneration of 90-95% of the cells; medium 199; monitored 5 days
Protocol: Determination of the anticancer activity of MATR in the cell culture was performed in a HeLa-2 cell culture. The different amount of MATR from 2 to 12 μg/ml of medium was added to medium 199. (see table 1). For the control a culture was without MATR. Cell cultures were monitored for 5 days with daily viewing. The minimum active dose (MAD) of MATR was considered to be its minimum amount, which caused degeneration of 90-95% of the cells (Table 2)

skin wounds = assay: Wound healing activity; assay type: in vivo, male Vistar white rats
Protocol: The study of the wound healing properties of the compositions was carried out on male Vistar white rats. In 38 animals that were anesthetized with diethyl ether for 2-4 min., A 2 by 2 cm skin area was cut out on the dorsal side of the body, behind the right shoulder blade. The skin was taken with tweezers, it was pulled back, the skin fragment was cut 2 cm in size, wound depth 2 mm, the average area of the wound was 4±1.0 cm^2.
The resulting wounds of a polygonal shape were intensively bleeding. Then the wounds of animals first and second groups (10 in each), D1 and D2 compositions were applied.
The wounds of rats of the 3rd group were treated with Dexpanthenol (DP), the 4th group of 8 animals was the control group, the wounds of these animals were not treated. The compositions in contact with blood formed a gel form, it was covering entire surface of the wound and capture a small fragment of surrounding skin around the wound.
The glue BF-6 was applied on top of the gel, dried and the animals were released into cells.
The planimetric studies of the wounds were carried out from 1st day of experiment on the 3rd, 6th, 9th, 11th, and 13th days, which made it possible to judge the features of reparative processes.
The measurement of the area of the wounds was carried out as follows: on the celluloid film which was covering the wound entirely, contours were applied, after which the area of the wound surface was determined using graph paper.

SMILES | Tumor volume (Schwez leukemia) [cm3] | LD50 ([1]; in vivo, intraperitoneal) [mg/kg] | toxicity of the control compound (dose in brackets) ([1]; intraperitoneally three times with an interval of two hours) [mg/kg] | MAD (minimum active dose) (HeLa-2 tumor cells) [µg/mL] | Wound Area (S) during the observation (skin wounds; 1-3 days) [cm2] | Wound Area (S) during the observation (skin wounds; 3-6 days) [cm2] | Wound Area (S) during the observation (skin wounds; 6-9 days) [cm2] | Wound Area (S) during the observation (skin wounds; 9-11 days) [cm2] | Wound Area (S) during the observation (skin wounds; 11-13 days) [cm2]
CC(=O)O[C@@]12CO[C@@H]1C[C@H](O)[C@@]1(C)C(=O)[C@H](O)C3=C(C)[C@@H](OC(=O)[C@H](O)[C@@H](NC(=O)OC(C)(C)C)c4ccccc4)C[C@@](O)([C@@H](OC(=O)c4ccccc4)[C@H]21)C3(C)C [Taxotere] | 0.73 | 120 | 120 | 10 | – | – | – | – | –
CC(C)(CO)[C@@H](O)C(=O)NCCCO [DP, Dexpanthenol] | – | – | – | – | 4.1 ± 1.0 | 3.2 ± 0.3 | 2.4 ± 0.3 | 1.0 ± 0.3 | 0.3 ± 0.1
